Here are results for one compound from patent US12667560B2, “Co-administration of mirdametinib and lifirafenib for use in treating cancers” (BeiGene, Ltd., priority 2020, dated 2026).

Each structure is given as a SMILES string. Where a name gives a salt, the structure may show the parent alone.

The experiment relates to subcutaneous Calu-6 tumors which harbor a K-RAS mutation. In words: Efficacy study in Calu-6 K-RAS mutated human xenograft lung adenocarcinoma model. It is filed as in vivo, Balb/c nude mice. Conditions: Compound B maleate alone, 2.5 mg/kg (free base) p.o. BID, Group 2. On the procedure: To determine the effects of Compound B Maleate and Compound A, alone or in combination, on growth of subcutaneous Calu-6 tumors which harbor a K-RAS mutation in Balb/c nude mice in an Efficacy Study.
Experimental designs for the Efficacy study are illustrated in Table 2.
Each mouse was inoculated subcutaneously at the right flank with Calu-6 tumor cells (5×10^6 cells in 0.1 ml 50% Matrigel® in MEM). Tubes containing suspended cells and syringes were kept on ice to avoid solidification of Matrigel®. 2× overage was implemented for cell injection. When mean tumor volume reached the indicated sizes in Table 2, animals were randomly assigned to the indicated groups in Table 2 and received the first dosing. […]
Tumor volumes and mouse body weights were measured three times weekly after tumors became palpable and before randomization and grouping. Afterwards, tumor volumes and mouse body weights were measured twice weekly to termination, in two dimensions using a caliper, and the tumor volumes were expressed in mm^3 using the formula: V=0.5 L×W^2, where L and W were the long and short diameters of the tumor, respectively. The TGI value for the drug A-treated group at Day X was calculated as following: TGI (%)={1−[mTV(drug at Day X)−mTV(drug at Day 0)]/[mTV(veh at Day X)−mTV(veh at Day 0)]}×100, where mTV represented mean tumor volume. […]
For orientation: Xenograft models place foreign cells or tissue in a host animal.

In the case of `O=C1CCc2c(Oc3ccc4c(c3)[C@@H]3[C@H](C4)[C@H]3c3nc4ccc(C(F)(F)F)cc4[nH]3)ccnc2N1` [Compound B maleate], the “inhibition of Calu-6 tumor growth compared to the vehicle control” value is reported as “significant inhibition”.
